Measured values as given in patent US20240350493A1 (Kadmon Corporation, LLC, priority 2022, published 2024).
≈ marks a conversion by molar mass, not a printed value. Read-outs that look alike come from different tables or passages of the source.

What was measured:
P-gp = P-gp (Homo sapiens, UniProt P08183); assay: transporter substrate, in vitro; type: in vitro ADME
UGT1A9 = UGT1A9 (Homo sapiens, UniProt O60656); assay: enzyme inhibition, in vitro; type: in vitro ADME
[1] = previously conducted solubility studies; type: physicochemical
Experimental: Rabeprazole, a strong PPI, suppresses the secretion of gastric acid by noncompetitive blockade of H+/K+-adenosine triphosphatase at the secretory surface of gastric parietal cells, thereby raising the intra-gastric pH above 3.0. The recommended starting dose of sodium rabeprazole for subjects with GI ulcers and GERD is 20 mg per day and for subjects with hypersecretory syndromes is 60 mg per day (Accord-UK Ltd. Summary of Product Characteristics: Rabeprazole 20 mg Gastro-resistant Tablets, available at www.medicines.org.uk/emc/medicine/27143/SPC/Rabeprazole+20 mg+Gastro-resistant+Tablets/. Updated 16 Apr. 2020. Accessed 12 Aug. 2021).

[2] = relative bioavailability/food effect study, tablet and capsule (KD025-106); type: in vivo, human; conditions: for AUC(0-t) / AUC(0-inf) / Cmax / Tmax / half-life: male, human, plasma, oral, 200 mg
Experimental: Both studies were single-center, open-label, randomized, single dose crossover studies in healthy males.
In the second, relative bioavailability/food effect study, both the marketed tablets and earlier formulation capsules were investigated.
For Treatments B and C, before dosing, subjects consumed a high-fat breakfast consisting of a hash brown, bacon, fried egg, white bread, and 240 mL of full fat milk over 25 minutes. […] All subjects were to receive each treatment, with at least a 6-day washout between each period. Water was permitted ad libitum in all study periods, besides for 1 hour pre-and post-dose.
In both studies, serial blood samples for PK analysis were collected at pre-dose and 1, 2, 4, 6, 8, 12, 16, 24, and 36 hours post-dose. An additional sample at 30 hours post-dose was collected in the first study; additional samples were collected 3, 5, and 48 hours post-dose in the second study. Blood samples (5-6 mL per sample) were collected in K3EDTA tubes on ice and were processed within 30 minutes of collection, then frozen at approximately-70 to −80° C. shortly after collection.
Sample preparation was performed by protein precipitation.
Statistical analyses were performed in SAS using the PROC MIXED procedure and the Restricted Maximum Likelihood estimation method. In both studies, the presence of a food effect was evaluated by a formal statistical analysis on natural log-transformed AUC and Cmax using mixed effect modeling techniques. The model included treatment, period, and sequence as fixed effects and subject nested within sequence as a random effect. Adjusted geometric mean ratios (GMRs) and their 90% confidence intervals (CIs) were calculated for fed (test) versus fasted (reference) treatments. The absence of a food effect was to be concluded if the 90% CI was within the bioequivalence limits of 80.00 to 125.00%.
To assess relative bioavailability between formulations in the second study, the same analysis was performed for tablets (test) versus capsules (reference), both in the fed state. For both studies, all subjects who received at least one dose of study drug and had post-dose PK data available were included in the PK population

UGT1A1 = UGT1A1 (Homo sapiens, UniProt P22309); assay: enzyme inhibition, in vitro; type: in vitro ADME
Sequence of UGT1A1 (P22309 26-533): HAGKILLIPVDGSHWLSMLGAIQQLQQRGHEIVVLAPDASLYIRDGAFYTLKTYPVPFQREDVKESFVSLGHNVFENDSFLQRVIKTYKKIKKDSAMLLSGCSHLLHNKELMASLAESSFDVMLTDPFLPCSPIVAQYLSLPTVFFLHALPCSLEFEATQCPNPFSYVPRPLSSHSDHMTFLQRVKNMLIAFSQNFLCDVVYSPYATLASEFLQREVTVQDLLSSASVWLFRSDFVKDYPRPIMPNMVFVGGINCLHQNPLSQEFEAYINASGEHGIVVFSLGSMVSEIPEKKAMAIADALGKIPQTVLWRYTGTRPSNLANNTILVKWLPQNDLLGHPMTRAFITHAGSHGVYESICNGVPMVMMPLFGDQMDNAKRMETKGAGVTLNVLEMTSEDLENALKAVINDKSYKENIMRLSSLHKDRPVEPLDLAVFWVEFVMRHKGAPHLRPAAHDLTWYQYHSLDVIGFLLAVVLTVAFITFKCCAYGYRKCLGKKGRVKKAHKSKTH

human serum albumin = human serum albumin (Homo sapiens, UniProt P02768); assay: protein binding in vitro; type: in vitro ADME
Sequence of human serum albumin (P02768 25-609): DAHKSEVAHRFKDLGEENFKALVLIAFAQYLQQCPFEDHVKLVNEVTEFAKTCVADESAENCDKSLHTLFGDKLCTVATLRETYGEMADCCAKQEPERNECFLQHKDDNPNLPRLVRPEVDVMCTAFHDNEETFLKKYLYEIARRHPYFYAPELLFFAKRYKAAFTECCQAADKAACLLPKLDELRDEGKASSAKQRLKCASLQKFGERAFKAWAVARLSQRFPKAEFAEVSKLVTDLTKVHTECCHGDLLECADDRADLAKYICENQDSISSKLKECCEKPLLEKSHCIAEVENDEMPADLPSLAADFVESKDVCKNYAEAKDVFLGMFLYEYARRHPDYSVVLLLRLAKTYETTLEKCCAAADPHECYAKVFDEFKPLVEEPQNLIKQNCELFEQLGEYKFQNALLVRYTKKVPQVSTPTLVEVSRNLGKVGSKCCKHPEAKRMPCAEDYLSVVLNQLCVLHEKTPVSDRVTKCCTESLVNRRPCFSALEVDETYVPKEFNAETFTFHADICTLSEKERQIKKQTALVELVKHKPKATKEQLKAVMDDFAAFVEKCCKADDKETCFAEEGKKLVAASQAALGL

pregnant rabbits [3] = assay: embryo-fetal developmental study in rabbits; conditions: rabbit
BCRP = BCRP (Homo sapiens, UniProt Q9UNQ0); assay: transporter inhibition, in vitro; type: in vitro ADME; conditions: at clinically relevant concentrations
Sequence of BCRP (Q9UNQ0 whole entry): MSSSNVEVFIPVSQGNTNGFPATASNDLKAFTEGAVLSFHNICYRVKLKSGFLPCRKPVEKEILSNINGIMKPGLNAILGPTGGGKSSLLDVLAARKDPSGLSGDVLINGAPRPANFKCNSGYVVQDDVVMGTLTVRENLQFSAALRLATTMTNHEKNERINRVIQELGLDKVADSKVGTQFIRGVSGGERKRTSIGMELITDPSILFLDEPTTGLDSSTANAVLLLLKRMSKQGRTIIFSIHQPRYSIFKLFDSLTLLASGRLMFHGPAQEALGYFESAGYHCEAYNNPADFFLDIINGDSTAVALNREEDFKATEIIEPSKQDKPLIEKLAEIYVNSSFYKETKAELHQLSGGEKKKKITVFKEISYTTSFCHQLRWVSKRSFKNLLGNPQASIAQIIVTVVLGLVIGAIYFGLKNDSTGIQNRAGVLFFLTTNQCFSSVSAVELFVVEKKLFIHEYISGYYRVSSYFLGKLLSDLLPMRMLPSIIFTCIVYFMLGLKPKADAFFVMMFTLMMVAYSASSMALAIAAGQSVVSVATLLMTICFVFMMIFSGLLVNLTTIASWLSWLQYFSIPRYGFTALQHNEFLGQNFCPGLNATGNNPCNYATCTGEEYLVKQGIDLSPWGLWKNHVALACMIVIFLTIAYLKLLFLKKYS

pregnant rabbits [4] = conditions: female, rabbit, in vivo, po
CYP2C19 = CYP2C19 (Homo sapiens, UniProt P33261); assay: incubations with recombinant enzymes; type: in vitro ADME
Sequence of CYP2C19 (P33261 whole entry): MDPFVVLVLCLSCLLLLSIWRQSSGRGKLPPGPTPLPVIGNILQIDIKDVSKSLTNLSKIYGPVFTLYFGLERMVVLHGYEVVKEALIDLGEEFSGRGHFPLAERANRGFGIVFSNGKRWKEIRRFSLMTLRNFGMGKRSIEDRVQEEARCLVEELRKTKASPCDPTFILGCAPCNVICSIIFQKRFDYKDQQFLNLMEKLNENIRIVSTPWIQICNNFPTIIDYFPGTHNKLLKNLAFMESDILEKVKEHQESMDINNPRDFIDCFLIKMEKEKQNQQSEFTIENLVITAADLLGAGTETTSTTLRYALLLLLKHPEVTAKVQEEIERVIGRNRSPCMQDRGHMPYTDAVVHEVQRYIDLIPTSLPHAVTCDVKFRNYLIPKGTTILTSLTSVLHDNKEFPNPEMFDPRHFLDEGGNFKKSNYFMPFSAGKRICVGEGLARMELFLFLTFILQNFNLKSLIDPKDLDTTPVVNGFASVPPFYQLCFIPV

[5] = 200 mg tablet, high-fat breakfast

Sequence of UGT1A9 (O60656 26-530): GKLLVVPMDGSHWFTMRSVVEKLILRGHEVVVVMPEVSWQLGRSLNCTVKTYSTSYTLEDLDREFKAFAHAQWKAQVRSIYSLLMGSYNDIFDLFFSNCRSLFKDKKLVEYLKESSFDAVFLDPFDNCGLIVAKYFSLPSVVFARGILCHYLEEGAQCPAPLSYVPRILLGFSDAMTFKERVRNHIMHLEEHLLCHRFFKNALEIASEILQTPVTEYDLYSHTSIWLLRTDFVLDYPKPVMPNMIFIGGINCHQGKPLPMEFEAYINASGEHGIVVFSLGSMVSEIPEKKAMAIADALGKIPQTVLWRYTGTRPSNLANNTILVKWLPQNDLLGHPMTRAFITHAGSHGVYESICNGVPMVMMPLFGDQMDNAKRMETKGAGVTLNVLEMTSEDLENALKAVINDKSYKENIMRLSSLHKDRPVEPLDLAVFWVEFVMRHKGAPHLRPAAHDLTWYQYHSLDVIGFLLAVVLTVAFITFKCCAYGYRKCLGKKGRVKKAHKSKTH
Sequence of P-gp (P08183 whole entry): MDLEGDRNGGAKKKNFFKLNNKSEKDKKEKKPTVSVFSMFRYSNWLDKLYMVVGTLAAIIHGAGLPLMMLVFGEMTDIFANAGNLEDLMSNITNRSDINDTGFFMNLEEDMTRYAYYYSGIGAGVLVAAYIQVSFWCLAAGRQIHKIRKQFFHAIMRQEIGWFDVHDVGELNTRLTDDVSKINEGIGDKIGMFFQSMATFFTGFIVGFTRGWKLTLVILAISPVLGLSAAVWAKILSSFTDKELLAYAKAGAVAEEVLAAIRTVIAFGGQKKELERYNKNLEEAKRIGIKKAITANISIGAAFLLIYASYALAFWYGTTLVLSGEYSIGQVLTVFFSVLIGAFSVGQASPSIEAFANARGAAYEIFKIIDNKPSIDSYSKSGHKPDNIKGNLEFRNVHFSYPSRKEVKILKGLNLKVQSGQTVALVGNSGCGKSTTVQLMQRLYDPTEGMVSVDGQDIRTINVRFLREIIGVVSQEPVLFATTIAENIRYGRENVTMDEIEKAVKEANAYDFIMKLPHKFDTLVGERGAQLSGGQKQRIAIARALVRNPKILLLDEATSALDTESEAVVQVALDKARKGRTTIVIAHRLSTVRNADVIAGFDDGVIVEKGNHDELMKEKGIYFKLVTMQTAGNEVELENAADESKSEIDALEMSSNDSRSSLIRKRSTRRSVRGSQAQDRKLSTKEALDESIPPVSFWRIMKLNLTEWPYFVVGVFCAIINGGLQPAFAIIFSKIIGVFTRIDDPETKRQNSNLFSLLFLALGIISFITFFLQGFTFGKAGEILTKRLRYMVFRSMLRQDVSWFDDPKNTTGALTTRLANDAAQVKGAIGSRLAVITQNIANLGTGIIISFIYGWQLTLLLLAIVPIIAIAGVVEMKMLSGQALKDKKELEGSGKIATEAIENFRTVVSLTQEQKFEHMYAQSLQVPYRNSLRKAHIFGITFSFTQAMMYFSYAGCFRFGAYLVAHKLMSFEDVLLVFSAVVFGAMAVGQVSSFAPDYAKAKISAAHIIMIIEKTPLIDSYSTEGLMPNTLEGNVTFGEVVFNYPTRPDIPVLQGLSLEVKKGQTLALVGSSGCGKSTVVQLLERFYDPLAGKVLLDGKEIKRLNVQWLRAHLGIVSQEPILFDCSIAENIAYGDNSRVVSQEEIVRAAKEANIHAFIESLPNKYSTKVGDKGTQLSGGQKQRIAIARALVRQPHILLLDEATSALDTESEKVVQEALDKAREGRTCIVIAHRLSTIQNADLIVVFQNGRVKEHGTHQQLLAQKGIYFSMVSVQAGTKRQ

In the case of CC(C)NC(=O)COc1cccc(-c2nc(Nc3ccc4[nH]ncc4c3)c3ccccc3n2)c1 [Belumosudil, 2-{3-[4-(1H-indazol-5-ylamino)-2-quinazolinyl]phenoxy}-N-(propan-2-yl) acetamide], the P-gp substrate (P-gp) is reported as “substrate”, the UGT1A9 inhibition (UGT1A9) is reported as “inhibitor” and the solubility ([1]; pH 2.7, aqueous buffer) is reported as over 100 µg/mL. For the same compound, the solubility ([1]; pH 6.5, aqueous buffer) was about 4 µg/mL (≈ 8.84 µM), the solubility ([1]; pH 7.4, aqueous buffer) was about 3 µg/mL (≈ 6.63 µM) and the “reduction of inter-subject variability in exposure with food” value ([2]; 200 mg tablet) was “approximately 60%”. For the same compound, the “AUC% extrap, arithmetic mean (SD)” value ([2]; 200 mg tablet, fasted) was 8.38 (9.05) %, the “AUC% extrap, geometric mean (geometric CV %)” value ([2]; 200 mg tablet, fasted) was 6.02 (90.8); % and the “AUC% extrap, arithmetic mean (SD)” value ([2]; 200 mg tablet, fed) was 1.71 (0.71) %. The “AUC% extrap, geometric mean (geometric CV %)” value ([2]; 200 mg tablet, fed) was 1.55 (50.3); %, the “AUCinf fed as % of fasted” value [2, 5] was 180% and the “Cmax fed as % of fasted” value [2, 5] was 225%. The AUC(0-t) ([2]; 200 mg tablet, fasted, read-out: AUC0-24, arithmetic mean (SD)) was 5.4 µg·h/mL, the AUC(0-t) ([2]; 200 mg tablet, fasted, read-out: AUC0-24, geometric mean (geometric CV %)) was 4.25 µg·h/mL and the AUC(0-inf) ([2]; 200 mg tablet, fasted, read-out: AUCinf, arithmetic mean (SD)) was 6.67 µg·h/mL. The AUC(0-inf) ([2]; 200 mg tablet, fasted, read-out: AUCinf, geometric mean (geometric CV %)) was 4.91 µg·h/mL, the AUC(0-t) ([2]; 200 mg tablet, fasted, read-out: AUClast, arithmetic mean (SD)) was 5.83 µg·h/mL and the AUC(0-t) ([2]; 200 mg tablet, fasted, read-out: AUClast, geometric mean (geometric CV %)) was 4.52 µg·h/mL. For the same compound, the Cmax ([2]; 200 mg tablet, fasted, read-out: Cmax, arithmetic mean (SD)) was 1.11 µg/mL, the Cmax ([2]; 200 mg tablet, fasted, read-out: Cmax, geometric mean (geometric CV %)) was 0.821 µg/mL and the Tmax ([2]; 200 mg tablet, fasted, read-out: Tmax, median (range)) was 2 h. The half-life ([2]; 200 mg tablet, fasted, read-out: t1/2, arithmetic mean (SD) (converted)) was 12.2 h, the half-life ([2]; 200 mg tablet, fasted, read-out: t1/2, geometric mean (geometric CV %) (converted)) was 11.2 h and the AUC(0-t) ([2]; 200 mg tablet, fed, read-out: AUC0-24, arithmetic mean (SD)) was 10.6 µg·h/mL. It also gave an AUC(0-t) ([2]; 200 mg tablet, fed, read-out: AUC0-24, geometric mean (geometric CV %)) of 9.58 µg·h/mL, an AUC(0-inf) ([2]; 200 mg tablet, fed, read-out: AUCinf, arithmetic mean (SD)) of 11.3 µg·h/mL and an AUC(0-inf) ([2]; 200 mg tablet, fed, read-out: AUCinf, geometric mean (geometric CV %)) of 10.1 µg·h/mL. The AUC(0-t) ([2]; 200 mg tablet, fed, read-out: AUClast, arithmetic mean (SD)) was 10.8 µg·h/mL, the AUC(0-t) ([2]; 200 mg tablet, fed, read-out: AUClast, geometric mean (geometric CV %)) was 9.75 µg·h/mL and the Cmax ([2]; 200 mg tablet, fed, read-out: Cmax, arithmetic mean (SD)) was 2.32 µg/mL. The Cmax ([2]; 200 mg tablet, fed, read-out: Cmax, geometric mean (geometric CV %)) was 2.1 µg/mL, the Tmax ([2]; 200 mg tablet, fed, read-out: Tmax, median (range)) was 2.5 h and the half-life ([2]; 200 mg tablet, fed, read-out: t1/2, arithmetic mean (SD) (converted)) was 7.59 h. For the same compound, the half-life ([2]; 200 mg tablet, fed, read-out: t1/2, geometric mean (geometric CV %) (converted)) was 6.98 h, the Tmax ([2]; 200 mg tablet, read-out: delay in Tmax with fed administration) was 0.5 h and the “exposure (Cmax and AUC) higher for tablet versus capsule” value ([2]; single dose 200 mg, fed state) was 17-19%. The UGT1A1 inhibition (UGT1A1) was “inhibitor”, the “binding to human serum albumin” value (human serum albumin) was 99.9% and the “maternal exposures (AUC) with adverse developmental outcomes, times human exposure at recommended dose” value (pregnant rabbits [3]) was at least 0.07 times. For the same compound, the BCRP inhibition (BCRP) was “inhibits”, the “doses with embryo-fetal effects” value (pregnant rabbits [4]) was at least 50 mg/kg/day and the “doses with maternal toxicity (body weight loss and mortality)” value (pregnant rabbits [4]) was at least 125 mg/kg/day. For the same compound, the “share of belumosudil metabolism” value (CYP2C19) was under 5%.
